The text below walks through data of publication PMC10184129 (Journal of Medicinal Chemistry, 2023).

Assay [1] relates to murine microglial N9 cells. The following applies: LPS 100 ng/mL, 24 h; for TREM2 and TGFβ2 expression: 1-5 μM.
In assay [2] the target is T1, hBChE (Homo sapiens, UniProt P06276).
Assay [3] relates to Aβ25–35-induced learning impairments in mice. The note with it: 3 mg/kg IP.
Assay [4] addresses T1, hBChE. The source holds these as a separate data set.
The target of assay [5] is rCB1R (Rattus norvegicus, UniProt P20272).
Sequence of rCB1R (P20272 whole entry): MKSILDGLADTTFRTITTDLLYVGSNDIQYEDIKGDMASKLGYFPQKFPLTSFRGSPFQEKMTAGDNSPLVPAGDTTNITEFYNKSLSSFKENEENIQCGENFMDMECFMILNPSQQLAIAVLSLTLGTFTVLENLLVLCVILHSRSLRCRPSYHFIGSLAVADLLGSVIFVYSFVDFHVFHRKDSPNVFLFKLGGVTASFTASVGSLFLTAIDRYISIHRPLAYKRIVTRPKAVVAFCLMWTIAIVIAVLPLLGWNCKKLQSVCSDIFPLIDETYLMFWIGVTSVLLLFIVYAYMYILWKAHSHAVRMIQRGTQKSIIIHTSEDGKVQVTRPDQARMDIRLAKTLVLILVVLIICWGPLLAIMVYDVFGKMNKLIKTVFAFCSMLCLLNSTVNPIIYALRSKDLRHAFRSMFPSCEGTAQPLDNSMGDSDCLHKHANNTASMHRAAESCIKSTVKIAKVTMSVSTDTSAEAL
In assay [6] the target is hCB2R (Homo sapiens, UniProt P34972).
Sequence of hCB2R (P34972 whole entry): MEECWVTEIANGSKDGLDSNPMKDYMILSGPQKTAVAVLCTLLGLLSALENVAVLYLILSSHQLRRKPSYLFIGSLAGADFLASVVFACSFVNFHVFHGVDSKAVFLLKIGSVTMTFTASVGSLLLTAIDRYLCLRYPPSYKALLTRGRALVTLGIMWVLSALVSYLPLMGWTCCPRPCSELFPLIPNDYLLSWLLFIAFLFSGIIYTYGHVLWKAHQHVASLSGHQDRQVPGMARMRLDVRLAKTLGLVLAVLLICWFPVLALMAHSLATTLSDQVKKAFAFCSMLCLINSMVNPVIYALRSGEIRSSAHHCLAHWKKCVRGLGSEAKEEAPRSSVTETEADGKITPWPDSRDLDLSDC

T1 sequence (P06276 29-602): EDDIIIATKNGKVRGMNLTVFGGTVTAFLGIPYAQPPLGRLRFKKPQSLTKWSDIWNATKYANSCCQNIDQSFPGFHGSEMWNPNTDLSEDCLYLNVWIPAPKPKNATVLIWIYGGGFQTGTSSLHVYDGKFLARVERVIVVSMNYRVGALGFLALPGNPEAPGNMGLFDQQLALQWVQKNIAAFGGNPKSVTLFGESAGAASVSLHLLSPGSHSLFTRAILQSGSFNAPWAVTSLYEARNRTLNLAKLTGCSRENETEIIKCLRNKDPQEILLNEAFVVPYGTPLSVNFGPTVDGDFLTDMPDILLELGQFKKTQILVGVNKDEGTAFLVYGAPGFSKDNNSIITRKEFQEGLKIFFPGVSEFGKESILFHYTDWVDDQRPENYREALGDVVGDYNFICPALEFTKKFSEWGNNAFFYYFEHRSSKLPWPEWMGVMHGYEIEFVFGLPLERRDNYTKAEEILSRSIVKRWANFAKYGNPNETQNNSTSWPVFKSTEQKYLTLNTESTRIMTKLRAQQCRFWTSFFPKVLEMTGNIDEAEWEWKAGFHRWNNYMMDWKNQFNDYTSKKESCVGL

As for `CCN(CC)C(=O)c1ccc2c(c1)nc(Cc1ccc(OC(=O)N(C)C)cc1)n2CCC(C)C` [15d, 4-((5-(Diethylcarbamoyl)-1-isopentyl-1H-benzo[d]imidazole-2-yl)methyl)phenyl dimethylcarbamate], the “TREM2 and TGFβ2 expression” value in assay [1] is given as “No parallel change”. The “concentration significantly decreasing expression of (i)NOS” value in assay [1] (Western blot) was 1.0 µM. For the same molecule, in assay [2], the “νmax, times higher than compound 21d” value amounted to 15. Also, in assay [3], the “effect of highest dose on Aβ25–35-induced learning deficits, passive avoidance” value was “complete blockade”.

Regarding `CCOc1ccc(Cc2nc3cc(OC(=O)N(C)C)ccc3n2CCC(C)C)cc1` [21a, 2-(4-Ethoxybenzyl)-1-isopentyl-1H-benzo[d]imidazole-5-yl dimethylcarbamate], the “fold less active on hBChE than counterpart 15d” value in assay [4] is “more than 100 fold”.

For the molecule `CCOc1ccc(Cc2nc3cc(OC(=O)N(C)CC)ccc3n2CCC(C)C)cc1` [21b, 2-(4-Ethoxybenzyl)-1-isopentyl-1H-benzo[d]imidazole-5-yl ethyl(methyl)carbamate], the “affinity toward CB1R (in words)” value in assay [5] is listed as “only exception”.

Turning to `CCOc1ccc(Cc2nc3cc(OC(=O)N4CCC4)ccc3n2CCC(C)C)cc1` [21d, 2-(4-Ethoxybenzyl)-1-isopentyl-1H-benzo[d]imidazole-5-yl Azetidine-1-carboxylate], in assay [1], the “TREM2 and TGFβ2 expression” value is recorded as “No parallel change”. In assay [1] (Western blot), the “concentration significantly decreasing expression of (i)NOS” value amounted to 2.5 µM and the “concentration significantly reducing IL1β release” value was found to be 1.0 µM.

For `CCOc1ccc(Cc2nc3cc(C(=O)N(CC)CC)ccc3n2CCC(C)C)cc1` [compound 4], the “agonist character in calcium mobilization” value in assay [6] is “full agonist”.
